Measured values published in US9938256B2, “Annelated benzamides” (Boehringer Ingelheim International GmbH, priority 2015, dated 2018).

Target: T1, ENaC (Epithelial Sodium Channel) (Mus musculus, UniProt Q61180+Q9WU38+Q9WU39)
T1 sequence (Q61180 1-699): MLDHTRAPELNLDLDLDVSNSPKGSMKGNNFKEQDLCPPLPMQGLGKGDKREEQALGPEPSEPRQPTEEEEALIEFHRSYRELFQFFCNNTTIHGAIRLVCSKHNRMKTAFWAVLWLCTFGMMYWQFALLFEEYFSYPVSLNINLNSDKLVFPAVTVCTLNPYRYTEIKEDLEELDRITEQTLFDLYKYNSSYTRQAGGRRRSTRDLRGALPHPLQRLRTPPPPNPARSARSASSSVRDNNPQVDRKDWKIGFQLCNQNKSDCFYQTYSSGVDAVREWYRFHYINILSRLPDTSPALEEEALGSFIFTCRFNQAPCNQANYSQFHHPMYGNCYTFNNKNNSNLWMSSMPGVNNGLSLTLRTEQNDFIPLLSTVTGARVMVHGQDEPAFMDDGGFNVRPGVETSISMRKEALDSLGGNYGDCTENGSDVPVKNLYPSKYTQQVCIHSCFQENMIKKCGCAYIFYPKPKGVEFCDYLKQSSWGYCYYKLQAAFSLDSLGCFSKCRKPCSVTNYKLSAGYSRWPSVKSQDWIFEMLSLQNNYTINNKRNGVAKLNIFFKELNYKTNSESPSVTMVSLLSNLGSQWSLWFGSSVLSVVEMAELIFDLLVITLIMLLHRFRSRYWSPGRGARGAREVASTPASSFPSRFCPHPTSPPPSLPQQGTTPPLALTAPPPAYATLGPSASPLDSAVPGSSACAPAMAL
T1 sequence (Q9WU38 1-638): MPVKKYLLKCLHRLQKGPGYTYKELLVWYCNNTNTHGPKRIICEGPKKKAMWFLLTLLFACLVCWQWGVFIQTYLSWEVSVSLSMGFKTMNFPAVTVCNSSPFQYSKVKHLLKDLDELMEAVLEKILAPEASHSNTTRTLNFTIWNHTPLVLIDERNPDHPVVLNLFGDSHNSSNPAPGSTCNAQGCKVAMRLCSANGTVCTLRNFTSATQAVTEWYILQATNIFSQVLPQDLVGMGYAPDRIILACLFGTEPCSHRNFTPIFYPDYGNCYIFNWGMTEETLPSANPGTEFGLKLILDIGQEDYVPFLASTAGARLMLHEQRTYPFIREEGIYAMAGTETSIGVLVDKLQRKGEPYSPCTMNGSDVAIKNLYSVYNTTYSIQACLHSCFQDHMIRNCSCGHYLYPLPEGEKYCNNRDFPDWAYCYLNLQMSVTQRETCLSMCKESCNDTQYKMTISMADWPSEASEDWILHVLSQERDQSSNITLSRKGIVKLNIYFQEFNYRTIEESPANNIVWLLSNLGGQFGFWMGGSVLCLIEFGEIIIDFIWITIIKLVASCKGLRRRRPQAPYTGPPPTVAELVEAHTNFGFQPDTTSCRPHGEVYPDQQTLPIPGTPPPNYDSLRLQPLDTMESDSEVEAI
T1 sequence (Q9WU39 1-655): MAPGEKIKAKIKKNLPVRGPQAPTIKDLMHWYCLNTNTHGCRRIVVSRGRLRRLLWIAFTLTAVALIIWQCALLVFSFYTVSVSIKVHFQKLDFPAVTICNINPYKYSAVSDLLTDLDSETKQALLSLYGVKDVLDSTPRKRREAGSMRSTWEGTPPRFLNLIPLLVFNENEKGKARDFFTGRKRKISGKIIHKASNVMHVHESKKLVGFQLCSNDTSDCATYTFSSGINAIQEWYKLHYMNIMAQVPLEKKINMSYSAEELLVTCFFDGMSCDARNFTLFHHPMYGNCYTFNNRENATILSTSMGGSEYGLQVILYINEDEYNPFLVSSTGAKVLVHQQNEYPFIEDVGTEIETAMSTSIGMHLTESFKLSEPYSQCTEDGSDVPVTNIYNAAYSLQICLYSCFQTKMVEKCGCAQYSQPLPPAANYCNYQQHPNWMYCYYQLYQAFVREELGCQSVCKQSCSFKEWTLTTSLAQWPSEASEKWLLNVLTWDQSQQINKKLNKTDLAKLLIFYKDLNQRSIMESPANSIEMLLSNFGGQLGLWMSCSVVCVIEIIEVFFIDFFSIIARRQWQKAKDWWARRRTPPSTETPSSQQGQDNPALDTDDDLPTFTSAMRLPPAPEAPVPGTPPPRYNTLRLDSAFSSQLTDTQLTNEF
Assay: Ussing Chamber assay (amiloride sensitive short circuit current in M-1 cells)
Format: cell-based
Conditions: Mouse kidney M-1 cells, apical administration, 37° C.
Protocol: The IC50 values of the example compounds given above were determined in the Ussing Chamber assay. Ussing Chamber: Mouse kidney M-1 cells were cultivated in DMEM containing 5% FCS and 5 μM dexamethasone for 10 to 12 days on polyester transwell filters. Filters were inserted into a teflon-coated well-plate which fit into the ussing chamber system. Prior to measurement the medium of M-1 cells was replaced with Caco-2 transport buffer (Invitrogen, Germany). During measurements, the Ussing chamber temperature was kept at 37° C. Short circuit currents (I_sc) were measured in the voltage-clamp mode with the software package Lab View for data acquisition and analysis. The transepithelial electrical resistance (TEER) was determined by the application of voltage steps of ±5 mV every 5 sec. Compounds were administered at a final concentration of 3 μM or at increasing concentrations (1-3-10 μM) to the apical solution. At the end of each experiment the amiloride sensitive I_SC was measured by adding 3 μM amiloride to the apical compartment. Results are expressed as inhibition in percent of the amiloride effect or as IC50. With the example compounds given above, the following IC50 values were determined in the Ussing Chamber assay: […]

Row | Compound | IC50 [nM]
1 | CCn1c(CNC(=O)c2nc(Cl)cnc2N)[n+](CC)c2ccc(C(=O)N(C)CCCNC)cc21 [Example 1.02] | 4
2 | CCn1c(CNC(=O)c2nc(Cl)cnc2N)[n+](CC)c2ccc(C(=O)N(C)CCN3CCOCC3)cc21 [Example 1.15] | 6
3 | CCn1c(CNC(=O)c2nc(Cl)cnc2N)[n+](CC)c2ccc(C(=O)N(C)CCN(C)C)cc21 [Example 1.20] | 6
4 | CCn1c(CNC(=O)c2nc(Cl)cnc2N)[n+](CC)c2ccc(C(=O)N(CCN)CCN)cc21 [Example 1.13] | 7
5 | CCn1c(CNC(=O)c2nc(Cl)cnc2N)[n+](CC)c2ccc(C(=O)N(CCN)CC(C)C)cc21 [Example 1.05] | 8
6 | CCn1c(CNC(=O)c2nc(Cl)cnc2N)[n+](CC)c2cc(C(=O)NCCOCP(C)(C)=O)ccc21 [Example 1.22] | 13
7 | CCn1c(CNC(=O)c2nc(Cl)cnc2N)[n+](CC)c2ccc(C(=O)NCCCN)cc21 [Example 1.10] | 4
8 | CCn1c(CNC(=O)c2nc(Cl)cnc2N)[n+](CC)c2ccc(C(=O)N(C)CCCN(C)C)cc21 [Example 1.17] | 7
9 | CCn1c(CNC(=O)c2nc(Cl)cnc2N)[n+](CC)c2ccc(C(=O)N(C)CCNC)cc21 [Example 1.14] | 4
10 | CCn1c(CNC(=O)c2nc(Cl)cnc2N)[n+](CC)c2ccc(C(=O)N3CCNCC3)cc21 [Example 1.01] | 7
11 | CCn1c(CNC(=O)c2nc(Cl)cnc2N)[n+](CC)c2ccc(C(=O)NCCN3CCOCC3)cc21 [Example 1.03] | 7
12 | CCn1c(CNC(=O)c2nc(Cl)cnc2N)[n+](CC)c2ccc(C(=O)NC[C@H](O)[C@@H](O)[C@H](O)[C@H](O)CO)cc21 [Example 1.09] | 6
13 | CCn1c(CNC(=O)c2nc(Cl)cnc2N)[n+](CC)c2cc(C(=O)N3CCN(CP(C)(C)=O)CC3)ccc21 [Example 1.16] | 12
14 | CCn1c(CNC(=O)c2nc(Cl)cnc2N)[n+](CC)c2ccc(C(=O)N3CCC(NC(=O)CN(C)C)CC3)cc21 [Example 1.11] | 5
15 | CCn1c(CNC(=O)c2nc(Cl)cnc2N)[n+](CC)c2ccc(C(=O)N3CCCNCC3)cc21 [Example 1.19] | 4
16 | CCn1c(CNC(=O)c2nc(Cl)cnc2N)[n+](CC)c2ccc(C(=O)NCCCNC)cc21 [Example 1.04] | 3
17 | CCn1c(CNC(=O)c2nc(Cl)cnc2N)[n+](CC)c2ccc(C(=O)NCCNC)cc21 [Example 1.08] | 6
18 | CCn1c(CNC(=O)c2nc(Cl)cnc2N)[n+](CC)c2cc(C(=O)N3CCC(N(C)C)CC3)ccc21 [Example 1.12] | 4
19 | CCn1c(CNC(=O)c2nc(Cl)cnc2N)[n+](CC)c2ccc(C(=O)N3CCC(NC(=O)CN)CC3)cc21 [Example 1.21] | 5
20 | CCn1c(CNC(=O)c2nc(Cl)cnc2N)[n+](CC)c2ccc(C(=O)N3CCN(C)CC3)cc21 [Example 1.07] | 5
21 | CCn1c(CNC(=O)c2nc(Cl)cnc2N)[n+](CC)c2ccc(C(=O)NCCN(C)C)cc21 [Example 1.06] | 4
22 | CCCCN1CCN(C(=O)c2ccc3c(c2)[n+](CC)c(CNC(=O)c2nc(Cl)cnc2N)n3CC)CC1 [Example 1.18] | 5
